Assay results reported in patent US8377935B2, “Substituted aminopropenyl piperidine or morpholine derivatives as novel inhibitors of histone deacetylase” (Janssen Pharmaceutica N.V., priority 2005, dated 2013).
Like-named read-outs stand apart in the source and are kept apart here.

Tests used:
[1] = test system: A2780 ovarian carcinoma cells; experiment: Determination of antiproliferative activity on A2780 cells (MTT); type: cell-based; conditions: Homo sapiens, 96 h, four days of incubation, read-out: Cellular activity pIC50 (converted)
Procedure: Cellular activity of the compounds of formula (I) was determined on A2780 tumour cells using a colorimetric assay for cell toxicity or survival (Mosmann Tim, Journal of Immunological Methods 65:55-63, 1983)(see example C.2).
All compounds tested were dissolved in DMSO and further dilutions were made in culture medium. Final DMSO concentrations never exceeded 0.1% (v/v) in cell proliferation assays. Controls contained A2780 cells and DMSO without compound and blanks contained DMSO but no cells. MTT was dissolved at 5 mg/ml in PBS. A glycine buffer comprised of 0.1 M glycine and 0.1 M NaCl buffered to pH 10.5 with NaOH (1 N) was prepared (all reagents were from Merck).
The human A2780 ovarian carcinoma cells (a kind gift from Dr. T. C. Hamilton [Fox Chase Cancer Centre, Pennsylvania, USA]) were cultured in RPMI 1640 medium supplemented with 2 mM L-glutamine, 50 μg/ml gentamicin and 10% fetal calf serum. Cells were routinely kept as monolayer cultures at 37° C. in a humidified 5% CO2 atmosphere. Cells were passaged once a week using a trypsin/EDTA solution at a split ratio of 1:40. All media and supplements were obtained from Life Technologies. Cells were free of mycoplasma contamination as determined using the Gen-Probe Mycoplasma Tissue Culture kit (supplier: BioMerieux).
Cells were seeded in NUNC™ 96-well culture plates (Supplier: Life Technologies) and allowed to adhere to the plastic overnight. Densities used for plating were 1500 cells per well in a total volume of 200 μl medium. After cell adhesion to the plates, medium was changed and drugs and/or solvents were added to a final volume of 200 μl. Following four days of incubation, medium was replaced by 200 μl fresh medium and cell density and viability was assessed using an MTT-based assay. To each well, 25 μl MTT solution was added and the cells were further incubated for 2 hours at 37° C. The medium was then carefully aspirated and the blue MTT-formazan product was solubilized by addition of 25 μl glycine buffer followed by 100 μl of DMSO. […] Within an experiment, the results for each experimental condition are the mean of 3 replicate wells. For initial screening purposes, compounds were tested at a single fixed concentration of 10^−6 M. For active compounds, the experiments were repeated to establish full concentration-response curves. For each experiment, controls (containing no drug) and a blank incubation (containing no cells or drugs) were run in parallel. The blank value was subtracted from all control and sample values. For each sample, the mean value for cell growth (in absorbance units) was expressed as a percentage of the mean value for cell growth of the control. […] Herein the effects of test compounds are expressed as pIC50 (the negative log value of the IC50-value)(see Table F-3).

[2] = target: histone deacetylase (HeLa nuclear extracts); experiment: In vitro assay for inhibition of histone deacetylase (HDAC Fluorescent Activity Assay, Fluor de Lys); type: biochemical; conditions: HeLa nuclear extracts 60 μg/ml, 75 μM Fluor de Lys substrate
Text: The in vitro assay for inhibition of histone deacetylase (see example C.1) measures the inhibition of HDAC enzymatic activity obtained with the compounds of formula (I).
The HDAC Fluorescent Activity Assay/Drug Discovery Kit of Biomol (cat.No: AK-500-0001) was used. The HDAC Fluorescent Activity Assay is based on the Fluor de Lys (Fluorogenic Histone deAcetylase Lysyl) substrate and developer combination. The Fluor de Lys substrate, comprises an acetylated lysine side chain. Deacetylation of the substrate sensitizes the substrate so that, in the second step, treatment with the Fluor de Lys developer produces a fluorophore.
HeLa nuclear extracts (supplier: Biomol) were incubated at 60 μg/ml with 75 μM of substrate. The Fluor de Lys substrate was added in a buffer containing 25 mM Tris, 137 mM. NaCl, 2.7 mM KCl and 1 mM MgCl2.6H2O at pH 7.4. After 30 min, 1 volume of the developer was added. The fluorophore was excited with 355 nm light and the emitted light (450 nm) was be detected on a fluorometric plate reader.
For each experiment, controls (containing HeLa nuclear extract and buffer), a blank incubation (containing buffer but no HeLa nuclear extract) and samples (containing compound dissolved in DMSO and further diluted in buffer and HeLa nuclear extract) were run in parallel. In first instance, compounds were tested at a concentration of 10^−5M. […] All sample were tested 4 times. In each test the blank value was substracted from both the control and the sample values. The control sample represented 100% of substrate deactylation. For each sample the fluorescence was expressed as a percentage of the mean value of the controls. […] Herein the effects of test compounds are expressed as pIC50 (the negative log value of the IC50-value) (see Table F-3).

[3] = Solubility/stability (chemiluminescent nitrogen detector); type: physicochemical; conditions: water
Text: The solubility of a compound measures the ability of a compound to stay in solution. The solubility of a compound at different pH's can be measured with the use of a chemiluminescent nitrogen detector (see example C.3).
The solubility of a compound, at different pH's, can be measured with the use of a chemiluminescent nitrogen detector.

[4] = not given; remark: listed apart in the source
[5] = Metabolic stability with rat hepatocytes cell culture; type: in vitro ADME; conditions: rat hepatocyte cell cultures, 5 μM
Text: Metabolism of drugs means that a lipid-soluble xenobiotic or endobiotic compound is enzymatically transformed into (a) polar, water-soluble, and excretable metabolite(s). The major organ for drug metabolism is the liver. […] However, some metabolites may have enhanced activity or toxic effects. Thus drug metabolism may include both “detoxication” and “toxication” processes. One of the major enzyme systems that determine the organism's capability of dealing with drugs and chemicals is represented by the cytochrome P450 monooxygenases, which are NADPH dependent enzymes. Metabolic stability of compounds can be determined in vitro with the use of subcellular human tissue (see example C.5.a.). Here metabolic stability of the compounds is expressed as % of drug metabolised after 15 minutes incubation of these compounds with microsomes. Quantitation of the compounds was determined by LC-MS analysis. Metabolic stability of compounds can also be determined by calculating the half live of compounds in rat hepatocyte cells (see example C.5.b.). […]
Samples were prepared for LC-MS by addition of two volumes of DMSO. […] Of the resulting supernatant 50 μl was analysed by LC-MS. […]
Total injection volume of samples was 50 μL. […] The mass spectrometer was operated in positive ion mode in SIM adjusted to the mass of […] with a scan width of 1 Da for quantification purposes. […]

| SMILES | melting point | IC50 [1] | Enzyme activity pIC50 [2] | further results |
| --- | --- | --- | --- | --- |
| CC(/C=C/c1ccccc1)NCC1CCN(c2ncc(C(=O)NO)cn2)CC1 (stereo not shown) [Compound 3] | 155 °C | 50.1 nM | 8.3 | solubility [3]: > 1000 µg/mL |
| CCCO [propanol] |  |  |  | % metabolism ([4]; 15 min incubation with active microsomes, compound 5 μM): 25% |
| CC(=O)N(CC1CCN(c2ncc(C(=O)NO)cn2)CC1)C(C)/C=C/c1ccccc1 (stereo not shown) [Compound 4] | 100 °C | 158 nM | 8.7 | solubility [3]: > 100 µg/mL |
| O=C(NO)c1cnc(N2CCN(S(=O)(=O)c3ccc4ccccc4c3)CC2)nc1 [Compound R306465, reference compound] |  |  |  | in vitro half-live [5]: 8 min |
| O=C(NO)c1cnc(N2CCC(CNC(/C=C/c3ccccc3)CO)CC2)nc1 (stereo not shown) (hydrate or solvate) [Compound 1] | 196 °C |  |  |  |
| Nc1ccccc1NC(=O)c1cnc(N2CCC(CNC(/C=C/c3ccccc3)CO)CC2)nc1 (stereo not shown) [Compound 5] | 178 °C | 3160 nM | 6.0 |  |
| COc1cc(N)c(Cl)cc1C(=O)NC1CCN(CCCOc2ccc(F)cc2)CC1OC (stereo not shown) [Cisapride] |  |  |  | % metabolism ([4]; human, 15 min, 5 μM): 45% |
| O=C(NO)c1cnc(N2CCC(NC(/C=C/c3ccccc3)CO)CC2)nc1 (stereo not shown) (hydrate or solvate) [Compound 2] | 109 °C |  |  |  |
| O=C(NO)c1cnc(N2CCC(NC(/C=C/c3ccccc3)CO)CC2)nc1 (stereo not shown) [Compound 2] |  | 158 nM | 8.0 | solubility [3]: > 500 µg/mL |

The next lines start with results.

| melting point | IC50 [1] | Enzyme activity pIC50 [2] | SMILES | further results |
| --- | --- | --- | --- | --- |
| 110 °C | 200 nM | 9.5 | CC(/C=C/c1ccccc1)N(CC1CCN(c2ncc(C(=O)NO)cn2)CC1)S(C)(=O)=O (stereo not shown) [Compound 8] |  |
| 95 °C | 1260 nM | 6.0 | Nc1ccccc1NC(=O)c1cnc(N2CCOC(CNC(/C=C/c3ccccc3)CO)C2)nc1 (stereo not shown) [Compound 7] |  |
| 111 °C | 79.4 nM | 8.1 | O=C(NO)c1cnc(N2CCOC(CNC(/C=C/c3ccccc3)CO)C2)nc1 (stereo not shown) [Compound 6] |  |
